Test results as given in patent publication US20210290784A1, “POSITRON EMISSION TOMOGRAPHY (PET) RADIOTRACERS FOR IMAGING MACROPHAGE COLONY-STIMULATING FACTOR 1 RECEPTOR (CSF1R) IN NEUROINFLAMMATION” (The Johns Hopkins University, priority 2018, published 2021).
“Also recorded” adds a separate entry of the source.

How the values were obtained:
CSF1R [1] = biological target: T1, CSF1R (Mus musculus, UniProt P09581); experiment: Brain uptake in transgenic mouse model of AD; type: in vivo, mice; parameters: from tissue; host or cells: brain of living CD-1, C57BL/6J, transgenic APP (AD model), EAE and CSF1R KO mice; conditions: all brain regions, 45 min
T1 sequence (P09581 20-977): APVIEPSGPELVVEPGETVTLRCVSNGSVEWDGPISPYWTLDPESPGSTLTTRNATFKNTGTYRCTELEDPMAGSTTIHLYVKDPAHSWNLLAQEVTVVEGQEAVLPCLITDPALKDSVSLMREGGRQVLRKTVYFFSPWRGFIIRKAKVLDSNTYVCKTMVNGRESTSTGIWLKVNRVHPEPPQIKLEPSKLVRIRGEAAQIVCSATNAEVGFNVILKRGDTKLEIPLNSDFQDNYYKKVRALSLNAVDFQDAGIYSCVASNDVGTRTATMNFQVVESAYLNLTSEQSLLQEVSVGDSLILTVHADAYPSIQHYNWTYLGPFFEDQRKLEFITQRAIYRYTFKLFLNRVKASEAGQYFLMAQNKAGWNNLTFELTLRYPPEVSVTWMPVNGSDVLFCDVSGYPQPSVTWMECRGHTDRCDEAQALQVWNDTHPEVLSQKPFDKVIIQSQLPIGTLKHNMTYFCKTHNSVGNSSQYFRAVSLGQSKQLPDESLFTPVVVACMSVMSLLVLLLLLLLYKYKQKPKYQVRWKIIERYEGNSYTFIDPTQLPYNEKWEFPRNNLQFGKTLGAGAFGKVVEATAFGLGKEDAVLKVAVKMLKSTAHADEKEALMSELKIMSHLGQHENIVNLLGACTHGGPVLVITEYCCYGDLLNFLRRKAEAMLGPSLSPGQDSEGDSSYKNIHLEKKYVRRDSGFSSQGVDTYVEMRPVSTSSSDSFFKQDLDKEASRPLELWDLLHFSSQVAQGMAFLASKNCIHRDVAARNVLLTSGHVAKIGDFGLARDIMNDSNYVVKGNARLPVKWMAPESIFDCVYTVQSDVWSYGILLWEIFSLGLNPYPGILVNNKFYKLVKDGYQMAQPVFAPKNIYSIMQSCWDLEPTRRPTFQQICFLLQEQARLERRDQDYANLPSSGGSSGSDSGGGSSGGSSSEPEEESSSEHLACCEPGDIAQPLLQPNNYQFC
Source text: Mouse model of Alzheimer's disease-related amyloidosis overexpressed Amyloid Precursor Protein (APP) with Swedish and Indiana mutations was used. The transgenic APP had tetracycline transactivator (tTa)-sensitive promoter that was activated by over-expressing tTa driven by CaMKII promoter (5). Due to such combination of transgenes, the overexpression of transgenic APP was observed only in principal neurons of the forebrain. […] The Alzheimer's male mice (AD) and their sex-matched control littermates were 16 months of age at the time of the study. […] The outcome variables were calculated as % SUV.

[2] = Mouse plasma and brain radiometabolite analysis; type: in vivo, mice
Protocol: The animals were injected IV with 37 MBq (1 mCi) [^11C]CPPC [specific radioactivity=673 GBq/μmol (18.2 Ci/μmol)] and sacrificed by cervical dislocation at 10 min (3 animals) and 30 min (3 animals) after the radiotracer injection. […] Radiometabolites of [^11C]CPPC in the mouse plasma and brain were analyzed using a general HPLC method described above for baboon. Before the HPLC analysis the mouse brain was homogenized in 2 mL of mixture 50% acetonitrile: 50% phosphate buffer (Et3N, H3PO4, pH 7.2). The homogenates were centrifuged (14000 g for 5 min) and supernatants filtered using 0.2 micron filter and filtrate was analyzed by radio-HPLC with phenomenex Gemini C18, 10μ, 4.6×250 mm and 2 mL/min isocratic elution and 50% acetonitrile-50% aqueous triethylamine, c=0.06 M and pH=7.2 as mobile phase. […] The radiometabolites poorly penetrate the blood-brain barrier and their presence in the brain is low (Table 4)

CSF1R [3] = biological target: CSF1R (Homo sapiens, UniProt P07333); experiment: Postmortem human brain autoradiography; type: binding; parameters: from tissue; conditions: for Autoradiography binding, Baseline: inferior parietal cortex slices
Sequence of CSF1R (Homo sapiens, UniProt P07333) (P07333 20-972): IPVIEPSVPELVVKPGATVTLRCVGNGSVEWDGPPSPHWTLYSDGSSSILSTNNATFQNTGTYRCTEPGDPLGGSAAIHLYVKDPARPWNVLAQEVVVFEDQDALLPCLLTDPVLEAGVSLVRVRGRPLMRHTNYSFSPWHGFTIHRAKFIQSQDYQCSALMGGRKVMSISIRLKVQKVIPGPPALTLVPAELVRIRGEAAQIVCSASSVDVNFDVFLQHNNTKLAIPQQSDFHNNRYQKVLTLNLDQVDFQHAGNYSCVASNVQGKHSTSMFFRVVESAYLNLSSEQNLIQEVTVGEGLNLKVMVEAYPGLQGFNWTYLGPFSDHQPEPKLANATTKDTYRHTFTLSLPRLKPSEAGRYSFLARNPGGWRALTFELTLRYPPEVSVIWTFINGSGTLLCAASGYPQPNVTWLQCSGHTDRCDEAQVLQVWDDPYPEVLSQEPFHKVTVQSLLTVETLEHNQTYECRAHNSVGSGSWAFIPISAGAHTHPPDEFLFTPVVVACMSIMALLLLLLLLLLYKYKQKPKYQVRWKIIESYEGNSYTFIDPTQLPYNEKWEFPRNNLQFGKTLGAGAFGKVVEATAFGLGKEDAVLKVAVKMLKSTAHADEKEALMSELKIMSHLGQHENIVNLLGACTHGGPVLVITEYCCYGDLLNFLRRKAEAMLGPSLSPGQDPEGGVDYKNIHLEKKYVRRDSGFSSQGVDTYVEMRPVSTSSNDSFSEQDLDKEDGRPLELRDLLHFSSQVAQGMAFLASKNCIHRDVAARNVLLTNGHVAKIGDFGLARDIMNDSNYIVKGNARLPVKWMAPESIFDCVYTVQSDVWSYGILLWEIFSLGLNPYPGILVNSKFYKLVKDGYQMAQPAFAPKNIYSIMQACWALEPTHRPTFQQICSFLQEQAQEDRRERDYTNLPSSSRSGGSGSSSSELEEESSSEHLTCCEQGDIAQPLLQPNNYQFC
Source text: Use of human tissues has been approved by the Institutional Review Board of the Johns Hopkins Medical Institutions. […] The slides were exposed to X-ray film and analyzed with outcome expressed as pmol/mm^3 of wet tissue±SD.

CSF1R [4] = experiment: Brain uptake in CSF1R knock-out vs control mice; type: in vivo; conditions: whole brain, 45 min
Protocol: B6.Cg-Csf1rtml.2Jwp/J (CSF1R knock-out, KO) mice (21-23 g; age=four to eight weeks; Jackson Laboratories, Bar Harbor, Me.) (5 animals) and age-matched C57BL/6J controls (23-27 g) (5 animals) were used. […] The outcome variables were calculated as % SUV.

[5] = Plasma free fraction, centrifree ultrafiltration; type: in vitro ADME; conditions: baboon plasma, not affected by LPS or LPS and blocking

[11CH3]N1CCN(c2ccc(NC(=O)c3ccc(C#N)o3)c(N3CCCCC3)c2)CC1 [[^11C]CPPC, 5-cyano-N-(4-(4-[^11C]methylpiperazin-1-yl)-2-(piperidin-1-yl)phenyl)furan-2-carboxamide]
uptake in brain regions of AD mice vs control (CSF1R [1]): significantly greater; also recorded: significantly higher | Brain Parent [^11C]CPPC, % ([2]; 10 min): 96.6 ± 0.1% | Plasma Parent [^11C]CPPC, % ([2]; 10 min): 70.2 ± 2.2% | Brain Parent [^11C]CPPC, % ([2]; 30 min): 95.1 ± 1.6% | Plasma Parent [^11C]CPPC, % ([2]; 30 min): 39.7 ± 1.3% | increase of radiotracer binding in AD brain vs. control brain slices (CSF1R [3]; baseline autoradiography): 75-99% | Autoradiography binding, Blocking with unlabeled CPPC (CSF1R [3]; sample 1-AD): 4.72 ± 1.07 pmol/mm3 | Autoradiography binding, Baseline (CSF1R [3]; sample 1-AD): 8.18 ± 0.68 pmol/mm3 | Autoradiography binding, Blocking with unlabeled CPPC (CSF1R [3]; sample 2-AD): 2.67 ± 0.53 pmol/mm3 | Autoradiography binding, Baseline (CSF1R [3]; sample 2-AD): 7.20 ± 1.55 pmol/mm3 | Autoradiography binding, Blocking with unlabeled CPPC (CSF1R [3]; sample 3-AD): 3.73 ± 1.07 pmol/mm3 | Autoradiography binding, Baseline (CSF1R [3]; sample 3-AD): 7.43 ± 1.59 pmol/mm3 | Autoradiography binding, Blocking with unlabeled CPPC (CSF1R [3]; sample 4-control): 2.86 ± 1.06 pmol/mm3 | Autoradiography binding, Baseline (CSF1R [3]; sample 4-control): 4.11 ± 1.14 pmol/mm3 | brain uptake (% SUV) in CSF1R KO mouse brain vs. controls (CSF1R [4]): comparable | fraction unbound [5]: 0.0548 ± 0.0098
